Earlier results as cited in US9625473B2, “Cytokine biomarkers as predictive biomarkers of clinical response for glatiramer acetate” (TEVA PHARMACEUTICAL INDUSTRIES LTD., priority 2010, dated 2017).

Experiments:
[1] = tested on: IL-4; conditions: after stimulation with GA, mediated predominantly by CD4 cells, GA-treated vs. untreated patients
[2] = tested on: IFN-gamma; conditions: after stimulation with high GA concentrations, partially mediated by CD8 cells, GA-treated vs. untreated patients
[3] = tested on: RRMS subjects
[4] = tested on: PBMC; conditions: GA-treated vs. untreated patients

For Glatiramer acetate [GA], the “IL-4 ELISPOT response” value [1] is listed as “positive”, the IFN-gamma response [2] is listed as “elevated” and the “number of relapses, compared with placebo” value ([3]; RRMS subjects, GA 20 mg/day, three double-blind placebo-controlled studies) is listed as “significant reduction”. The tolerability ([3]; daily standard dose of 20 mg) was “generally well tolerated”, the relapse rate reduction ([3]; largest controlled study, GA 20 mg vs placebo) was 32% and the relapse rate ([3]; largest controlled study, under GA 20 mg) was 1.34. For the same substance, the “median cumulative number of Gd-enhancing lesions” value ([3]; over 9 months of treatment, 20 mg group, MRI) was 11 lesions and the “GA-induced PBMC proliferation” value [4] was “significant reduction”.
